Measured values reported in patent US20060211698A1, “Bicyclic heteroaryl derivatives for treating viruses” (Genelabs, Inc., priority 2005, published 2006).

Target: T1, HCV-NS5b (Hepatitis C virus genotype 1b, UniProt Q9WMX2)
T1 construct: The cloned fragment was missing the C terminus 21 amino acid residues; (His)6 (C); made in house; host or cells: XL-1 cells (E. coli)
Experiment: HCV-NS5b Enzyme Assay
Assay type: biochemical
Conditions: 1 μM test compound; incorporation of [3H]-UTP, 37° C., 2 hours
Source text: The coding sequence of NS5b protein was cloned by PCR from pFKI389luc/NS3-3′/ET as described by Lohmann, V., et al. (1999) Science 285, 110-113 using the following primers: • […] (SEQ. ID. NO. 1) • […] (SEQ. ID. NO. 2)
The cloned fragment was missing the C terminus 21 amino acid residues. The cloned fragment is inserted into an IPTG-inducible expression plasmid that provides an epitope tag (His)6 at the carboxy terminus of the protein.
The recombinant enzyme was expressed in XL-1 cells and after induction of expression, the protein was purified using affinity chromatography on a nickel-NTA column. Storage condition is 10 mM Tris-HCl pH 7.5, 50 mM NaCl, 0.1 mM EDTA, 1 mM DTT, 20% glycerol at −20° C.
The polymerase activity was assayed by measuring incorporation of radiolabeled UTP into a RNA product using a biotinylated, heteropolymeric template, which includes a portion of the HCV genome. Typically, the assay mixture […] contains 10 mM Tris-HCl (pH 7.5), 5 mM MgCl2, 0.2 mM EDTA, 10 mM KCl, 1 unit/μL RNAsin. 1 mM DTT, 10 μM each of NTP, including [^3H]-UTP, and 10 ng/μL biotinylated heteropolymeric template. 20× test compound in 2 μl's was then added as a 100% DMSO solution to achieve a final DMSO concentration of 5%. For IC50 determination a 10-point dose response was used. The compounds were serial diluted 2-fold […]. Typically for IC50's, compounds were tested starting at 50 uM or 2 μm depending on the potency. Reactions were started with addition of 10×NS5B in 4 μl's and allowed to incubate at 37° C. for 2 hours. Reactions were quenched with 8 μL of 100 mM EDTA and reaction mixtures (30 μL) were transferred to streptavidin-coated scintillation proximity microtiter plates (FlashPlates) and incubated at 4° C. overnight. Incorporation of radioactivity was determined by scintillation counting (cpm). The % Inhibition at a particular concentration was determined using the following equation, % Inhibition=100−[100*(cpm with inhibitor−bg)/(cpm with no inhibitor−bg)] where bg was the background with no enzyme.

Row | SMILES | inhibition at 1 µM [%] | % inhibition @ 1 μM [%]
1 | Cc1nc(C)c(-c2ccc3cc(-c4c(C5CCCCC5)c5ccc(C(=O)O)cc5n4CC(=O)N4CCC(N5CCOCC5)CC4)ccc3n2)s1 [Compound 278, 3-Cyclohexyl-2-[2-(2,4-dimethyl-thiazol-5-yl)-quinolin-6-yl]-1-[2-(4-morpholin-4-yl-piperidin-1-yl)-2-oxo-ethyl]-1H-indole-6-carboxylic acid] | 91.8 | –
2 | Cc1cccc(-c2ccc3cc(-c4c(C5CCCCC5)c5ccc(C(=O)O)cc5n4CC(=O)N4CCOCC4)ccc3n2)c1 [Compound 231, 3-Cyclohexyl-1-(2-morpholin-4-yl-2-oxo-ethyl)-2-(2-m-tolyl-quinolin-6-yl)-1H-indole-6-carboxylic acid] | 98.7 | –
3 | Cc1sc(-c2ccc3cc(-c4c(C5CCCCC5)c5ccc(C(=O)O)cc5n4CC(=O)N4CCOCC4)ccc3n2)c(C)[n+]1[O-] [Compound 281, 3-Cyclohexyl-2-[2-(2,4-dimethyl-3-oxy-thiazol-5-yl)-quinolin-6-yl]-1-(2-morpholin-4-yl-2-oxo-ethyl)-1H-indole-6-carboxylic acid] | 77.6 | –
4 | Cc1nc(C)c(-c2ccc3cc(-c4c(C5CCCCC5)c5ccc(C(=O)O)cc5n4CC(=O)Nc4nn[nH]n4)ccc3n2)s1 [Compound 239, 3-Cyclohexyl-2-[2-(2,4-dimethyl-thiazol-5-yl)-quinolin-6-yl]-1-[(2H-tetrazol-5-ylcarbamoyl)-methyl]-1H-indole-6-carboxylic acid] | 96.9 | –
5 | Cc1nc(C)c(-c2nc3ccc(-c4c(C5CCCCC5)c5ccc(C(=O)O)cc5n4CC(=O)N4CCOCC4)cc3[nH]2)s1 [Compound 320, 3-Cyclohexyl-2-[2-(2,4-dimethyl-thiazol-5-yl)-3H-benzoimidazol-5-yl]-1-(2-morpholin-4-yl-2-oxo-ethyl)-1H-indole-6-carboxylic acid] | 84.1 | –
6 | Cc1nc(C)c(-c2ccc3cc(-c4c(C5CCCCC5)c5ccc(C(=O)O)cc5n4CCCN(C)C)ccc3n2)s1 [Compound 286, 3-Cyclohexyl-1-(3-dimethylamino-propyl)-2-[2-(2,4-dimethyl-thiazol-5-yl)-quinolin-6-yl]-1H-indole-6-carboxylic acid] | 85.7 | –
7 | O=C(O)c1ccc2c(C3CCCCC3)c(-c3ccc4nc(-c5ccc[nH]5)ccc4c3)n(CC(=O)N3CCOCC3)c2c1 [Compound 219, 1-[N-morpholinocarbonylmethyl]-2-[2-(pyrrol-2-yl)-quinolin-6-yl]-3-cyclohexyl-1H-indole-6-carboxylic acid] | – | 96.0
8 | Cn1cccc1-c1ccc2cc(-c3c(C4CCCCC4)c4ccc(C(=O)O)cc4n3CC(=O)N3CCOCC3)ccc2n1 [Compound 271, 3-Cyclohexyl-2-[2-(1-methyl-1H-pyrrol-2-yl)-quinolin-6-yl]-1-(2-morpholin-4-yl-2-oxo-ethyl)-1H-indole-6-carboxylic acid] | 100 | –
9 | Cc1nc(C)c(-c2ccc3cc(-c4c(C5CCCCC5)c5ccc(C(=O)O)cc5n4CC(=O)N4CCC(C(=O)O)CC4)ccc3n2)s1 [Compound 241, 1-[2-(4-Carboxy-piperidin-1-yl)-2-oxo-ethyl]-3-cyclohexyl-2-[2-(2,4-dimethyl-thiazol-5-yl)-quinolin-6-yl]-1H-indole-6-carboxylic acid] | 94.1 | –
10 | COc1ccc(-c2ccc(Cl)cc2)c(-c2ccc3cc(-c4c(C5CCCCC5)c5ccc(C(=O)O)cc5n4CC(=O)N(C)C)ccc3n2)c1 [Compound 206, 1-[N,N-dimethylaminocarbonyl-methyl]-2-[2-(4′-chloro-4-methoxy-biphen-2-yl)-quinolin-6-yl]-3-cyclohexyl-1H-indole-6carboxylic acid] | 99 | –
11 | Cc1nc(C)c(-c2ccc3cc(-c4c(C5CCCCC5)c5ccc(C(=O)O)cc5n4CC(=O)N4CCOCC4)cc(Br)c3n2)s1 [Compound 282, 2-[8-Bromo-2-(2,4-dimethyl-thiazol-5-yl)-quinolin-6-yl]-3-cyclohexyl-1-(2-morpholin-4-yl-2-oxo-ethyl)-1H-indole-6-carboxylic acid] | 87.8 | –
12 | Cc1nc(C)c(-c2ccc3cc(-c4c(C5CCCCC5)c5ccc(C(=O)O)cc5n4CC(=O)NCC(=O)O)ccc3n2)s1 [Compound 213, 1-[(N-carboxymethycarbamoyl)-methyl]-[2-(2,4-dimethyl-thiazol-5-yl)-quinolin-6-yl]-3-cyclohexyl-1H-indole-6-carboxylic acid] | – | 92.1
13 | N#Cc1ccc(-c2ccc(-c3c(C4CCCCC4)c4ccc(C(=O)O)cc4n3CC(=O)N3CCOCC3)cc2)cc1 [Compound 307, 2-(4′-Cyano-biphenyl-4-yl)-3-cyclohexyl-1-(2-morpholin-4-yl-2-oxo-ethyl)-1H-indole-6-carboxylic acid] | 97.4 | –
14 | O=C(O)c1ccc2c(C3CCCCC3)c(-c3ccc4ncc(-c5ccccc5)cc4c3)n(CC(=O)N3CCOCC3)c2c1 [Compound 327, 3-Cyclohexyl-1-(2-morpholin-4-yl-2-oxo-ethyl)-2-(3-phenyl-quinolin-6-yl)-1H-indole-6-carboxylic acid] | 96.3 | –
15 | O=C(O)c1ccc2c(C3CCCCC3)c(-c3ccc4nc(-c5ccc(C(F)(F)F)cc5)ccc4c3)n(CC(=O)N3CCOCC3)c2c1 [Compound 263, 3-Cyclohexyl-1-(2-morpholin-4-yl-2-oxo-ethyl)-2-[2-(4-trifluoromethyl-phenyl)-quinolin-6-yl]-1H-indole-6-carboxylic acid] | 94.4 | –
16 | O=C(O)c1ccc2c(C3CCCCC3)c(-c3ccc(-c4ccccc4F)cc3)n(CC(=O)N3CCOCC3)c2c1 [Compound 302, 3-Cyclohexyl-2-(2′-fluoro-biphenyl-4-yl)-1-(2-morpholin-4-yl-2-oxo-ethyl)-1H-indole-6-carboxylic acid] | 99.3 | –
17 | CCN(CC)C1CCN(C(=O)Cn2c(-c3ccc4nc(-c5sc(C)nc5C)ccc4c3)c(C3CCCCC3)c3ccc(C(=O)O)cc32)CC1 [Compound 275, 3-Cyclohexyl-1-[2-(4-diethylamino-piperidin-1-yl)-2-oxo-ethyl]-2-[2-(2,4-dimethyl-thiazol-5-yl)-quinolin-6-yl]-1H-indole-6-carboxylic acid] | 98.9 | –
18 | O=C(O)c1ccc2c(C3CCCCC3)c(-c3ccc4cc(-c5ccccc5)ccc4c3)n(CC(=O)N3CCOCC3)c2c1 [Compound 328, 3-Cyclohexyl-1-(2-morpholin-4-yl-2-oxo-ethyl)-2-(6-phenyl-naphthalen-2-yl)-1H-indole-6-carboxylic acid] | 101 | –
19 | Cc1nc(C)c(-c2ccc3cc(-c4c(C5CCCCC5)c5ccc(C(=O)O)cc5n4CC(=O)N4CCC(C)CC4)ccc3n2)s1 [Compound 280, 3-Cyclohexyl-2-[2-(2,4-dimethyl-thiazol-5-yl)-quinolin-6-yl]-1-[2-(4-methyl-piperidin-1-yl)-2-oxo-ethyl]-1H-indole-6-carboxylic acid] | 97.7 | –
20 | COc1cccc(Cn2c(-c3ccc4nc(-c5sc(C)nc5C)ccc4c3)c(C3CCCCC3)c3ccc(C(=O)O)cc32)c1 [Compound 293, 3-Cyclohexyl-2-[2-(2,4-dimethyl-thiazol-5-yl)-quinolin-6-yl]-1-(3-methoxy-benzyl)-1H-indole-6-carboxylic acid] | 69.2 | –
21 | O=C(O)c1ccc2c(C3CCCCC3)c(-c3ccc4nc(-c5ccccc5F)ccc4c3)n(CC(=O)N3CCOCC3)c2c1 [Compound 255, 3-Cyclohexyl-2-[2-(2-fluoro-phenyl)-quinolin-6-yl]-1-(2-morpholin-4-yl-2-oxo-ethyl)-1H-indole-6-carboxylic acid] | 97.4 | –
22 | O=C(O)c1ccc2c(C3CCCCC3)c(-c3ccc4nc(-c5ccccn5)ccc4c3)n(CC(=O)N3CCOCC3)c2c1 [Compound 217, 1-[N-morpholinocarbonylmethyl]-2-[2-(pyrid-2-yl)-quinolin-6-yl]-3-cyclohexyl-1H-indole-6-carboxylic acid] | – | 98.0
23 | COc1ccc(-c2ccc3cc(-c4c(C5CCCCC5)c5ccc(C(=O)O)cc5n4CC(=O)N4CCOCC4)ccc3n2)cc1F [Compound 273, 3-Cyclohexyl-2-[2-(3-fluoro-4-methoxy-phenyl)-quinolin-6-yl]-1-(2-morpholin-4-yl-2-oxo-ethyl)-1H-indole-6-carboxylic acid] | 99.4 | –
24 | O=C(O)c1ccc2c(C3CCCCC3)c(-c3ccc4nc(-c5cccs5)ccc4c3)n(CC(=O)N3CCOCC3)c2c1 [Compound 224, 1-[N-morpholinocarbonylmethyl]-2-[2-thien-2-ylquinolin-6-yl]-3-cyclohexyl-1H-indole-6-carboxylic acid] | – | 98.2
